Experimental data taken from US20140148606A1, “ANTI-TUMOR EFFECTS OF ALLOSTERIC FOCAL ADHESION KINASE INHIBITOR, METHYL VIOLET DERIVATIVES” (Korea Institute of Science and Technology, priority 2012, published 2014).

Experiments:
[1] = target: T1, full-length FAK (Homo sapiens, UniProt Q05397); test: FAK biochemical kinase assay (LANCE Ultra TR-FRET); conditions: for dependence of kinase inhibitory activity against full-length FAK on the concentration of ATP: methyl violet 2B at 2.7 μM, FIG. 2
T1 construct: purchased Signalchem
Description: Kinase reactions were performed at room temperature in lysis buffer (50 mM HEPES pH 7.5, 1 mM EGTA, 10 mM MgCl2, 2 mM DTT and 0.01% Tween-20) with 0.3 nM FAK (Signalchem), 100 nM ULight-poly GT (PerkinElmer), 10 μM ATP, and various concentrations (10 fold serial dilution, 6 points) of test compounds at a final volume of 10 μL. After 1 h, the kinase reaction was stopped by adding 10 mM EDTA and progressed by incubating the reaction mixture at room temperature for 5 min. To the mixture was added Detection Mix (Eu-anti-phospho-Tyr (PT66)) antibody to a final concentration of 2 nM and incubated for 1 h at room temperature. The plates were covered before being read using an EnVision® Multilabel reader in TR-FRET mode (excitation at 320 nm and emission at 665 nm, PerkinElmer).

[2] = system: A375P; test: Anti-proliferative activity assay (MTT / CellTiter-Glo); assay type: cell-based; conditions: Homo sapiens, skin, read-out: IC50 (nM), proliferation
Description: (§1) Melanoma cells (A375P, A375SM) and breast cancer cells (MDA-MB-231, MCF7) were maintained in DMEM medium (Welgene, Daegu, Korea). Colorectal cancer cells (HCT116, HT29), lung cancer cells (A549) and prostate cancer cells (DU145) were grown in RPMI1640 medium (Welgene). NIH3T3 and Balb/c cells were cultured in DMEM/F12 medium (Welgene).
(§2) Each medium was supplemented with 10% FBS (Welgene) and 1% penicillin/streptomycin (Welgene) in a humidified atmosphere with 5% CO2 at 37° C. A375P cells were purchased from the American Type Culture Collection (ATCC, Rockville, Md., US), and A375SM, MDA-MB-231, MCF7, HCT116, HT29, A549, DU145, NIH3T3 and Balb/c were purchased from the Korean Cell Line Bank (Seoul, Korea).
(§3) Cells were taken from culture substrate with 0.05% trypsin-0.02% EDTA and plated at a density of 5×10^3 cells/well in 96 well plates and then incubated at 37° C. for 24 h in a humidified atmosphere with 5% CO2 prior to treatment of various concentration (tenfold serial dilution, 6 steps) of test compounds. The cell viability was assessed by the conventional 3-(4,5-dimethylthiazol-2-yl)-2,5-diphenyltetrazolium bromide (MTT) reduction assay and luminescent assay. The MTT and luminescent assays were carried out with CellTiter 96® and CellTiter-Glo® Luminescent Cell Viability Assay (Promega, Wis., USA) according to the manufacturer's instructions. The absorbance at 590 nm was recorded using EnVision2103 (PerkinElmer; Boston, Mass., US). The IC50 value was calculated using the GraphPad Prism 4.0 software.

[3] = system: MDA-MB-231; test: as above; assay type: cell-based; conditions: Homo sapiens; MDA-MB-231, breast; read-out: IC50 (nM), proliferation
Description: as §1, §2, §3

[4] = system: A375SM; test: as above; assay type: cell-based; conditions: Homo sapiens, A375-SM, skin, read-out: IC50 (nM), proliferation
Description: as §1, §2, §3

[5] = system: Balb/c; test: as above; assay type: cell-based; conditions: Mus musculus, fibroblast, read-out: IC50 (nM), proliferation
Description: as §1, §2, §3

[6] = system: HCT116; test: as above; assay type: cell-based; conditions: Homo sapiens, HCT-116; HCT116, colon; read-out: IC50 (nM), proliferation
Description: as §1, §2, §3

[7] = system: HT29; test: as above; assay type: cell-based; conditions: Homo sapiens, HT-29; HT29, colon; read-out: IC50 (nM), proliferation
Description: as §1, §2, §3

[8] = system: NIH3T3; test: as above; assay type: cell-based; conditions: Mus musculus; NIH3T3, fibroblast; read-out: IC50 (nM), proliferation
Description: as §1, §2, §3

[9] = system: A549; test: as above; assay type: cell-based; conditions: Homo sapiens; A549, lung; read-out: IC50 (nM), proliferation
Description: as §1, §2, §3

[10] = system: DU145; test: as above; assay type: cell-based; conditions: Homo sapiens, DU-145; DU145, prostate; read-out: IC50 (nM), proliferation
Description: as §1, §2, §3

[11] = system: MCF7; test: as above; assay type: cell-based; conditions: Homo sapiens; MCF7, breast; read-out: IC50 (nM), proliferation
Description: as §1, §2, §3

[12] = system: p-ERK; test: Western analysis, ERK phosphorylation in A375P cells; assay type: cell-based, human; conditions: 10 nM, 48 h
Description: (§4) After incubating with the test compound for 48 h, both adherent and floating cancer cells were collected. The cells were lysed on ice in lysis buffer (50 mM Tris, pH 7.4, 150 mM NaCl, 1 mM EDTA, 1% NP-40, 0.25% sodium deoxycholate) supplemented with phosphatase inhibitors (Sigma #P2850, #5726; Phosphatase Inhibitor Cocktail I & II) and protease inhibitors (Complete, Mini, EDTA-free; Roche Applied Science) for 20 min. The protein concentration was determined using the Bio-Rad Protein assay reagent (Bio-Rad #500-0006). The lysate was centrifuged at 13000 rpm at 4° C. for 20 min. 50 μg of total proteins were mixed with […] (50 mM Tris-HCl (pH 6.8), 2% SDS, 10% 2-mercaptoethanol, 10% glycerol, and 0.002% bromophenol blue), boiled for 5 min, and subjected to a 10% SDS polyacrylamide gel electrophoresis. The proteins were electrophoresed onto nitrocellulose membranes and detected with antibodies against FER, FAK, DOCK180, Pyk2, Paxillin, AKT, GSK3, PTEN, JNK, ERK, Bcl-2, C-raf and Actin and against phosphorylated FER Tyr402, FAK Tyr925, Tyr861, Tyr577, Tyr576, Tyr397, Pyk2 Tyr402, Paxillin Tyr118, AKT S473, T308, GSK3β S9, JNK, ERK, Bad, C-raf and ERM T567, T564, T558 followed by the addition of horseradish peroxidase (HRP)-conjugated secondary antibodies and 3,3-diaminobenzidine tetrahydrochloride (DAB) as the HRP substrate.

[13] = system: p-JNK; test: Western analysis, JNK phosphorylation in A375P cells; assay type: cell-based, human; conditions: 10 nM, 48 h
Description: as §4

[14] = system: GSK3β S9; test: Western analysis, GSK3β phosphorylation in A375P cells; assay type: cell-based, human; conditions: dose-dependent, 48 h
Description: as §4

[15] = system: A375P cells; test: Migration (wound healing) assay, Ibidi Culture-Insert; assay type: cell-based, human; conditions: 1 nM, 48 h
Description: Migration of the A375P cells was assessed by using the Culture-Inserts (Ibidi) according to the manufacturer's protocol. The cells were plated at a density of 1×10^5 cells/well in each well of Culture-Inserts. After 24 h incubation, the Culture-Inserts were removed, and wounds were created by using a 500-μm thick wall. The dish containing these cells was treated with medium containing the compound and incubated at 37° C. for 48 h. Phase-contrast images of the closed gap wound were captured using a microscope.

[16] = system: AKT; test: Western analysis, AKT phosphorylation in A375P cells; assay type: cell-based, human; conditions: 1 nM, 48 h
Description: as §4

[17] = system: Bcl-2; test: Western analysis, Bcl-2 expression; assay type: cell-based, human; conditions: concentrations >1 nM, concentration-dependent
Description: as §4

[18] = system: FER Tyr402; test: Western analysis, FER phosphorylation in A375P cells; assay type: cell-based, human; conditions: 10 nM, 48 h
Description: as §4

[19] = system: p-Bad; test: Western analysis, Bad phosphorylation; assay type: cell-based, human; conditions: compared to Bcl-2
Description: as §4

[20] = system: FAK; test: Western analysis, FAK phosphorylation in A375P cells; assay type: cell-based, human; conditions: 0.1-10 nM, 48 h
Description: as §4

[21] = system: C-raf; test: Western analysis, C-raf phosphorylation; assay type: cell-based, human
Description: as §4

[22] = system: A375P cells; test: QCM ECMatrix Cell Invasion Assay; assay type: cell-based, human; conditions: 1 nM, 48 h
Description: Invasion of A375P cells was assessed by using the QCM ECMatrix Cell Invasion Assay (Chemicon, Millipore, Calif.) according to the manufacturer's protocol. The cells were plated on the membrane of the upper chamber of the transwell at a concentration of 2.5×10^5 cells/well in 500 μL of serum-free medium. The medium in the lower chamber contained the test compound and 10% fetal bovine serum. The cells that passed through the polycarbonate membrane were stained with cell stain solution supplied in the Transwell Invasion assay (Chemicon, Millipore, Calif.) and photographed after 48 h of incubation. The invasion was quantitated by dissolving the stained cells in 10% acetic acid and transferring a consistent amount of the dye/solute mixture to a 96-well plate for colorimetric reading of OD at 560 nm.

[23] = system: PTEN; test: Western analysis, PTEN level in A375P cells; assay type: cell-based, human; conditions: 48 h
Description: as §4

T1 sequence (Q05397 whole entry): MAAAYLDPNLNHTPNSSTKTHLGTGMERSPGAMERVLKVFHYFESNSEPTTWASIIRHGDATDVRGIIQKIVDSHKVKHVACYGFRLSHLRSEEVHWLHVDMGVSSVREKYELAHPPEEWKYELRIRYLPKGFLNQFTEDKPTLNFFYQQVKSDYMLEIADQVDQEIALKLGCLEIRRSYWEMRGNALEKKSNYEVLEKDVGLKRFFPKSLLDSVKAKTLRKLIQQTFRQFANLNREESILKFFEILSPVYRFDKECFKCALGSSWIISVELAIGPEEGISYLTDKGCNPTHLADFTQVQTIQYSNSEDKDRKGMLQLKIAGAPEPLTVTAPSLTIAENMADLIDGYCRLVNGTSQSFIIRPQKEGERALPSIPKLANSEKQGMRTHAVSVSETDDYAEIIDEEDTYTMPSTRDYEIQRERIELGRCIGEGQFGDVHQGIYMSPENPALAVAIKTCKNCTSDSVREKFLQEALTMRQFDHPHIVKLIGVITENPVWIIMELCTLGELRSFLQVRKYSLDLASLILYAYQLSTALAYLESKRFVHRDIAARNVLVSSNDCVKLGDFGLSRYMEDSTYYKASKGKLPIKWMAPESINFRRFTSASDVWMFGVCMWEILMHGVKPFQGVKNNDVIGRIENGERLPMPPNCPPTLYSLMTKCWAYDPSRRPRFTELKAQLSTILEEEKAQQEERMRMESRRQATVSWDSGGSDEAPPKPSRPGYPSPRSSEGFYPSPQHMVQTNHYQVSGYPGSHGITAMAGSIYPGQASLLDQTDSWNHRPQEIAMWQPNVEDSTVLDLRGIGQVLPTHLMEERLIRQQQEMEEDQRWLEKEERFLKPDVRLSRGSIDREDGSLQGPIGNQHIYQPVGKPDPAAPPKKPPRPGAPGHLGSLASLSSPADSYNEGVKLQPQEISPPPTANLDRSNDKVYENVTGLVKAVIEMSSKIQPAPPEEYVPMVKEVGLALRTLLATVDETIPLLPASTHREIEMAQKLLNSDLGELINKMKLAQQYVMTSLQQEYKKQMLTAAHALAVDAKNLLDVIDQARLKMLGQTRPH

## CNC(=O)c1ccccc1Nc1nc(Nc2ccc(N3CCOCC3)cc2OC)ncc1Cl [TAE226, reference compound]
[1]
  dependence of kinase inhibitory activity against full-length FAK on the concentration of ATP: inversely proportional to the concentration of ATP

## CN=C1C=CC(=C(c2ccc(N(C)C)cc2)c2ccc(N(C)C)cc2)C=C1.Cl [methyl violet 2B]
[2]
  IC50: 19.6 nM
[3]
  IC50: 13.4 nM
[4]
  IC50: 34.1 nM
[5]
  IC50: 59400 nM
[6]
  IC50: 36.9 nM
[7]
  IC50: 18.1 nM
[8]
  IC50: 938 nM
[9]
  IC50: 45.6 nM
[10]
  IC50: 81.5 nM
[11]
  IC50: 69.7 nM
[12]
  inhibitory effect against p-ERK: strong inhibitory effect
[13]
  inhibitory effect against p-JNK: strong inhibitory effect
[14]
  phosphorylation of GSK3β S9: significantly blocked
[15]
  cancer cell (A375P) motility / migration: suppresses
[1]; 10 μM ATP, LANCE Ultra kinase assay
  IC50: 2700 nM
[1]
  dependence of kinase inhibitory activity against full-length FAK on the concentration of ATP: independent of the concentration of ATP
[16]
  inhibition of p-AKT Ser473: dramatically inhibits
  inhibition of p-AKT Thr308: dramatically inhibits
[17]
  expression of the anti-apoptotic molecule Bcl-2: significantly suppressed
[18]
  inhibition of phosphorylation of FER Tyr402: significantly inhibits
[19]
  effect on p-Bad: less effective
[20]
  inhibitory effect on phosphorylation of FAK Tyr925, Tyr861 and Tyr577: much greater than that of Y576 and Y397
[21]
  phosphorylation of C-raf: did not affect
[22]
  invasion of the A375P cells: dose-dependent decrease
[23]
  level of PTEN: not altered
